Test results published in PubChem BioAssay (NCI).
Several values for one entry are separate records, joined by “and”; a condition that tells them apart may be missing. Equal entries are not always repeated.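 Grown in 96-well plates, cells were treated for 48 hours with each compound at five concentrations. Insufficient inhibition: endpoint recorded as highest concentration tested. GI50 is the concentration that inhibits growth by half. Definition used: TGI = concentration required for complete inhibition of growth.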

Tested on: MALME-3M melanoma
Experiment: DTP human tumour cell line panel, 48 h

SMILES | GI50 | TGI
COc1cc2nc(C)nc(N[C@H](C)c3cc(N)cc(C(F)(F)F)c3)c2cc1O[C@H]1CCOC1 | 18.2 µM | 33.4 µM
O=C1c2ccccc2C(=O)c2sc(Nc3cccc(Cl)c3)nc21 |  | 2.69 µM
Fc1ccc(Nc2ncnc3ccc(-c4cnc5[nH]ccc5c4)cc23)cc1Cl | 2.05 µM | 7.84 µM
CN(C)CCCNC1=C(Cl)C(=O)c2ccccc2C1=O | 2.06 µM | 3.77 µM
O=C(Nc1ccc(F)cc1F)c1cc(I)ccc1O | 2.08 µM | 6.45 µM
CCOc1ccccc1-n1c(CN2CCN(C(=O)COc3ccc(CNCCCCCCN4C5CCCC4CC(OC(=O)Nc4cc(C)ccc4OC)C5)cc3)CC2)nc2ccccc2c1=O (configuration not stated) | 1.7 µM | 3.21 µM
CC1(C)COC(c2ccc(C(F)(F)F)cc2C(O)c2ccc3ccccc3c2)=N1 (configuration not stated) | > 100 µM | > 100 µM
COc1ccc(NC(=O)c2cc(OC)cc(OC)c2)cc1 |  | > 100 µM
CC1(C)OC(=O)C(=Cc2ccc(O)cc2)C(=O)O1 |  | > 100 µM
COc1ccc(/C=C\c2cc(OC)c3c(c2)OCO3)c(O)c1O |  | 48.7 µM
CC[C@@]12CCCN3CC[C@]4(c5cccc(OC)c5N(C(C)=O)[C@@H]4CC1)[C@H]32 |  | > 100 µM

Tested on: ACHN renal
Experiment: DTP human tumour cell line panel, 48 h

SMILES | GI50 | TGI
O=C(CN1CCN(c2cc3c(cc2F)c(=O)c(C(=O)N/N=C/c2ccccc2O)cn3C2CC2)CC1)N/N=C\c1ccccc1O | 0.351 µM | > 100 µM
C=C(CNCCO)[C@@H]1CC[C@]2(CO)CC[C@]3(C)[C@H](CC[C@@H]4[C@@]5(C)CCC(N)C(C)(C)[C@@H]5CC[C@]43C)[C@@H]12 (some centres not stated) | 12.2 µM | 25 µM
Nc1cc2nc3ccccc3sc-2cc1=O | 2.5 µM | 11.1 µM
CCN(CC)CC(C(=O)Nc1c(C)cccc1C)/C(C)=N\NC(=O)C[N+](C)(C)C (configuration not stated) |  | > 100 µM
CC1=C(C(=O)Nc2ccccc2C)C(c2ccco2)C(C(=O)Nc2ccccc2C)=C(C)N1C |  | > 100 µM
COc1cc2nc(-c3ccc(C(F)(F)F)cc3)cc(OCCCN3CCC(O)CC3)c2cc1OC | 3.18 µM | 16.7 µM
CC(=O)OC(C)C(=O)C1c2cccc(O)c2C(=O)c2c(O)cc(C)cc21 (configuration not stated) |  | 1.85 µM
CC(=O)C(CN(C(C)C)C(C)C)C(c1ccccc1)c1c(O)c2ccccc2oc1=O (configuration not stated) |  | > 100 µM
O=C1NNC(=O)c2ccccc2SSc2ccccc2C(=O)NNC(=O)c2ccccc2SSc2ccccc21 | 7.34 µM | 50 µM and > 100 µM
NC(CCc1nc(-c2ccc(Cl)cc2)cs1)C(=O)O (configuration not stated) |  | > 100 µM
COc1ccc(-n2/c(=N/C(=S)N(C)C)ss/c2=N\C(=S)N(C)C)cc1 |  | > 100 µM
COc1cc(C(=O)/C=C/c2sc(Cl)nc2Cl)cc(OC)c1OC | 1.74 µM | 3.12 µM
COc1cc2nc(C)nc(N[C@H](C)c3cc(N)cc(C(F)(F)F)c3)c2cc1O[C@H]1CCOC1 | 11.6 µM | 23.9 µM
O=C1c2ccccc2C(=O)c2sc(Nc3cccc(Cl)c3)nc21 |  | 3.03 µM
Fc1ccc(Nc2ncnc3ccc(-c4cnc5[nH]ccc5c4)cc23)cc1Cl | 0.602 µM | 2.49 µM
CN(C)CCCNC1=C(Cl)C(=O)c2ccccc2C1=O | 4.96 µM | 9.51 µM
O=C(Nc1ccc(F)cc1F)c1cc(I)ccc1O | 2.5 µM | 7.62 µM
CCOc1ccccc1-n1c(CN2CCN(C(=O)COc3ccc(CNCCCCCCN4C5CCCC4CC(OC(=O)Nc4cc(C)ccc4OC)C5)cc3)CC2)nc2ccccc2c1=O (configuration not stated) | 2.4 µM | 5.9 µM
CC1(C)COC(c2ccc(C(F)(F)F)cc2C(O)c2ccc3ccccc3c2)=N1 (configuration not stated) | > 100 µM | > 100 µM
COc1ccc(NC(=O)c2cc(OC)cc(OC)c2)cc1 |  | > 100 µM
CC1(C)OC(=O)C(=Cc2ccc(O)cc2)C(=O)O1 |  | > 100 µM
COc1ccc(/C=C\c2cc(OC)c3c(c2)OCO3)c(O)c1O |  | 32.7 µM
CC[C@@]12CCCN3CC[C@]4(c5cccc(OC)c5N(C(C)=O)[C@@H]4CC1)[C@H]32 |  | > 100 µM

Tested on: KM12 colon
Experiment: DTP human tumour cell line panel, 48 h

SMILES | GI50 | TGI
O=C(CN1CCN(c2cc3c(cc2F)c(=O)c(C(=O)N/N=C/c2ccccc2O)cn3C2CC2)CC1)N/N=C\c1ccccc1O | 0.462 µM | > 100 µM
C=C(CNCCO)[C@@H]1CC[C@]2(CO)CC[C@]3(C)[C@H](CC[C@@H]4[C@@]5(C)CCC(N)C(C)(C)[C@@H]5CC[C@]43C)[C@@H]12 (some centres not stated) | 3.4 µM | 10.1 µM
Nc1cc2nc3ccccc3sc-2cc1=O | 10.8 µM | 30.6 µM
CCN(CC)CC(C(=O)Nc1c(C)cccc1C)/C(C)=N\NC(=O)C[N+](C)(C)C (configuration not stated) |  | > 100 µM
CC1=C(C(=O)Nc2ccccc2C)C(c2ccco2)C(C(=O)Nc2ccccc2C)=C(C)N1C |  | > 100 µM
COc1cc2nc(-c3ccc(C(F)(F)F)cc3)cc(OCCCN3CCC(O)CC3)c2cc1OC | 6.87 µM | 24 µM
CC(=O)OC(C)C(=O)C1c2cccc(O)c2C(=O)c2c(O)cc(C)cc21 (configuration not stated) |  | 1.23 µM
CC(=O)C(CN(C(C)C)C(C)C)C(c1ccccc1)c1c(O)c2ccccc2oc1=O (configuration not stated) |  | > 100 µM
O=C1NNC(=O)c2ccccc2SSc2ccccc2C(=O)NNC(=O)c2ccccc2SSc2ccccc21 | 42.3 µM | 50 µM and > 100 µM
NC(CCc1nc(-c2ccc(Cl)cc2)cs1)C(=O)O (configuration not stated) |  | > 100 µM
COc1ccc(-n2/c(=N/C(=S)N(C)C)ss/c2=N\C(=S)N(C)C)cc1 |  | > 100 µM
COc1cc(C(=O)/C=C/c2sc(Cl)nc2Cl)cc(OC)c1OC | 1.92 µM | 3.84 µM
COc1cc2nc(C)nc(N[C@H](C)c3cc(N)cc(C(F)(F)F)c3)c2cc1O[C@H]1CCOC1 | 14.9 µM | 30 µM
O=C1c2ccccc2C(=O)c2sc(Nc3cccc(Cl)c3)nc21 |  | 4.1 µM
Fc1ccc(Nc2ncnc3ccc(-c4cnc5[nH]ccc5c4)cc23)cc1Cl | 4.71 µM | > 100 µM
CN(C)CCCNC1=C(Cl)C(=O)c2ccccc2C1=O | 5.93 µM | 19.3 µM
O=C(Nc1ccc(F)cc1F)c1cc(I)ccc1O | 2.93 µM | 9.53 µM
CCOc1ccccc1-n1c(CN2CCN(C(=O)COc3ccc(CNCCCCCCN4C5CCCC4CC(OC(=O)Nc4cc(C)ccc4OC)C5)cc3)CC2)nc2ccccc2c1=O (configuration not stated) | 1.66 µM | 3.27 µM
CC1(C)COC(c2ccc(C(F)(F)F)cc2C(O)c2ccc3ccccc3c2)=N1 (configuration not stated) | > 100 µM | > 100 µM
COc1ccc(NC(=O)c2cc(OC)cc(OC)c2)cc1 |  | > 100 µM
CC1(C)OC(=O)C(=Cc2ccc(O)cc2)C(=O)O1 |  | > 100 µM
COc1ccc(/C=C\c2cc(OC)c3c(c2)OCO3)c(O)c1O |  | 21.4 µM
CC[C@@]12CCCN3CC[C@]4(c5cccc(OC)c5N(C(C)=O)[C@@H]4CC1)[C@H]32 |  | > 100 µM
